Experimental data from patent publication US20060286140A1, “Implants with attached silylated therapeutic agents” (priority 2003, published 2006).

What was measured:
E. faecalis = details: in vitro; cited from earlier work
S. aureus = details: in vitro, most strains including S. aureus; cited from earlier work
E. faecium = details: in vitro; cited from earlier work
S. aureus (ATCC 25923) = assay: Disc diffusion assay; format: cell-based; details: 1 μg/mL solution, 20 μL on six mm filter disk, overnight
Protocol: Disc Diffusion Assay. Six mm sterile filter disks can be directly placed onto a full-grown lawn of S. aureus (ATCC 25923) culture, and known volumes (20 μL) and dilutions of the eluted antibiotic can be pipetted onto the disc. After incubation overnight, the area of the resultant adjacent clear zone that is devoid of bacterial growth can be measured and compared with the area cleared by a standard series of known doses of rifampin. A 1 μg/mL solution of rifampin should give a clear zone of 4-5 cm. The lower limit of sensitivity of this assay is expected to be in the 10 ng/mL range.

Row | Compound | activity relative to linezolid (E. faecalis) [fold] | activity relative to quinupristin-dalfopristin (E. faecalis) [fold] | MIC90 (S. aureus) | activity relative to linezolid (E. faecium) [fold] | activity relative to quinupristin-dalfopristin (E. faecium) [fold] | clear zone (S. aureus (ATCC 25923))
1 | CN(C)c1cc(NC(=O)CNC(C)(C)C)c(O)c2c1C[C@H]1C[C@H]3[C@H](N(C)C)C(O)=C(C(N)=O)C(=O)[C@@]3(O)C(O)=C1C2=O [tigecyclin] | ~8 | 32 | less than 0.25 mg/mL | ~8 | 32 | –
2 | CO[C@H]1/C=C/O[C@@]2(C)Oc3c(C)c(O)c4c(O)c(c(/C=N/N5CCN(C)CC5)c(O)c4c3C2=O)NC(=O)/C(C)=C\C=C\[C@H](C)[C@H](O)[C@@H](C)[C@@H](O)[C@@H](C)[C@H](OC(C)=O)[C@@H]1C (relative stereo) [rifampin, (2S*,12Z,14E,16R*,17R*,18S*,19S*,20S*,21R*,22S*,23R*,24E)-5,6,9,17,19,21-hexahydroxy-23-methoxy-2,4,12,16,18,20,22-heptamethyl-8-[N-(4-methyl-1-piperazinyl)formimidoyl]-2,7-(epoxypentadeca[1,11,13]trienimino)naphtha[2,1-b]furan-1,11-deone 21-acetate] | – | – | – | – | – | 4-5 cm
